From ChEMBL document CHEMBL3046648, “Herbicidally Active N-(1-Arylethenyl)-2-chloroacetamides Bearing an Alkyloxyalkyl Moiety” (1991) come the findings set out here.

Structures are written as SMILES.

Holding throughout (format): functional
Test [1] has as its system Pontederia vaginalis. Nature of the test: Herbicidal activity against Monochoria vaginalis assessed as killing at 10 g/a at 25 degC measured after 3 weeks.
Test [2] has as its system Schoenoplectiella juncoides. Nature of the test: Herbicidal activity against Schoenoplectiella juncoides assessed as killing at 10 g/a at 25 degC measured after 3 weeks.
Test [3] can be described thus: Herbicidal activity against annual broad-leaf weeds assessed as killing at 10 g/a at 25 degC measured after 3 weeks.
In test [4] the test system is Echinochloa oryzicola. Nature of the test: Herbicidal activity against Echinochloa oryzicola assessed as killing at 10 g/a at 25 degC measured after 3 weeks.
Test [5] concerns Cyperus difformis. Nature of the test: Herbicidal activity against Cyperus difformis assessed as killing at 10 g/a at 25 degC measured after 3 weeks.
Test [6] deals with Echinochloa oryzicola. The experiment in a line: Herbicidal activity against Echinochloa oryzicola assessed as killing at 1 g/a at 25 degC measured after 3 weeks.
Test [7] deals with Cyperus difformis. The experiment in a line: Herbicidal activity against Cyperus difformis assessed as killing at 1 g/a at 25 degC measured after 3 weeks.
Test [8] deals with Schoenoplectiella juncoides. The experiment in a line: Herbicidal activity against Schoenoplectiella juncoides assessed as killing at 1 g/a at 25 degC measured after 3 weeks.
The subject of test [9] is Pontederia vaginalis. The experiment in a line: Herbicidal activity against Monochoria vaginalis assessed as killing at 1 g/a at 25 degC measured after 3 weeks.
Test [10] in a line: Herbicidal activity against annual broad-leaf weeds assessed as killing at 1 g/a at 25 degC measured after 3 weeks.

As for `COCCN(C(=O)CCl)C(=C(C)C)c1cccc2ccccc12`, the Activity is 60% with Pontederia vaginalis [1]; 60% in test [2]; 60% in test [3]; 100% in the test on Echinochloa oryzicola [4]; 80% in the test on Cyperus difformis [5].

With `CC(C)=C(c1ccccc1)N(CCOCC(F)(F)F)C(=O)CCl`, the Activity in the test on Pontederia vaginalis [1] stood at 60%; in test [2], 80%; in [3], 60%; in the test on Echinochloa oryzicola [4], 100%; in the test on Cyperus difformis [5], 100%.

As for `CCOC(=O)C(CC)N(C(=O)CCl)C(=C(C)C)c1ccccc1` (centres undefined), the Activity in the test on Pontederia vaginalis [1] is 40%; in [2], 60%; in [3], 80%; in the test on Echinochloa oryzicola [4], 80%; with Cyperus difformis [5], 40%.

As to `CCCCC=C(c1ccccc1)N(CCOC)C(=O)CCl`, the Activity worked out at 100% in the test with Pontederia vaginalis [1]; 100% in test [2]; 80% in test [3]; 80% with Echinochloa oryzicola [4]; 80% in the test with Cyperus difformis [5].

On to `COCCN(C(=O)CCl)C(=C(C)C)c1ccco1`, for which the Activity was 100% in the test on Pontederia vaginalis [1]; 100% with Echinochloa oryzicola [6]; 100% in test [2]; 100% in [3]; 20% with Cyperus difformis [7]; 100% with Echinochloa oryzicola [4]. Further, the Activity is 40% in [8], 0% in the test with Pontederia vaginalis [9] and 100% with Cyperus difformis [5].

In the case of `C=C(c1ccccc1)N(CCOC)C(=O)CCl`, the Activity in the test with Pontederia vaginalis [1] stood at 40%; in test [2] it was 60%; in test [3], 80%; in the test on Echinochloa oryzicola [4], 100%; in the test on Cyperus difformis [5] it was 80%.

As for `CSCCN(C(=O)CCl)C(=C(C)C)c1ccccc1`, the Activity was 0% with Pontederia vaginalis [1]; 20% in [2]; 0% in test [3]; 60% with Echinochloa oryzicola [4]; 0% in the test on Cyperus difformis [5].

As for `C/C=C/COCCN(C(=O)CCl)C(=C(C)C)c1ccccc1`, the Activity in the test with Pontederia vaginalis [1] was found to be 100%; in test [2], 100%; in test [3], 80%; in the test on Echinochloa oryzicola [4] it was 100%; in the test on Cyperus difformis [5], 100%.

As to `COCCN(C(=O)CCl)C(=C(C)C)c1ccccc1OC`, the Activity with Pontederia vaginalis [1] came to 100%; in the test on Echinochloa oryzicola [6], 0%; in test [2], 100%; in the test on Cyperus difformis [7] it was 0%; in [10], 0%; in the test on Echinochloa oryzicola [4] it was 100%. Further, the figures for the Activity (in test [8]; in the test on Pontederia vaginalis [9]; in the test on Cyperus difformis [5]) were 0%, 0% and 80%, respectively.

For `CCCCCOCCN(C(=O)CCl)C(=C(C)C)c1ccccc1`, the Activity turned out to be 0% with Pontederia vaginalis [1]; 60% in test [2]; 80% in test [3]; 80% in the test with Echinochloa oryzicola [4]; 80% in the test on Cyperus difformis [5].

In the case of `COC=C(c1ccccc1)N(CCOC)C(=O)CCl`, the Activity with Pontederia vaginalis [1] came out at 0%; in test [2] it was 40%; in test [3] it was 0%; in the test on Echinochloa oryzicola [4], 100%; in the test on Cyperus difformis [5] it was 60%.

On to `CCCCOCN(C(=O)CCl)c1c(CC)cccc1CC` [BUTACHLOR], for which the Activity (in the test on Pontederia vaginalis [1]; in test [2]; in [3]; with Echinochloa oryzicola [4]; with Cyperus difformis [5]) was 100% in each case.

Consider `COCCN(C(=O)CCl)C(=C(C)C)c1ccc(C)o1`, for which the Activity (in the test on Pontederia vaginalis [1]; in test [2]; in test [3]; with Echinochloa oryzicola [4]; in the test on Cyperus difformis [5]) was 100% throughout.

As to `COCCN(C(=O)CCl)C(=C(C)C)c1ccc(OC)c(OC)c1`, the Activity in the test on Pontederia vaginalis [1] came out at 100%; in the test with Echinochloa oryzicola [6], 80%; in [2], 100%; in test [3], 100%; with Cyperus difformis [7], 80%; in the test with Echinochloa oryzicola [4], 100%. The Activity in [8] is 60%; with Pontederia vaginalis [9], 60%; in the test on Cyperus difformis [5], 100%.

On to `COC(=O)C(C)N(C(=O)CCl)C(=C(C)C)c1ccccc1` (centres undefined), for which the Activity in the test on Pontederia vaginalis [1] was 80%; in test [2], 100%; in test [3] it was 80%; with Echinochloa oryzicola [4] it was 100%; in the test with Cyperus difformis [5] it was 80%.

Turning to `CCOC(CN(C(=O)CCl)C(=C(C)C)c1ccccc1)OCC`, the Activity amounted to 100% in the test with Pontederia vaginalis [1]; 0% in the test with Echinochloa oryzicola [6]; 100% in test [2]; 100% in [3]; 40% with Cyperus difformis [7]; 100% with Echinochloa oryzicola [4]. Besides, the values for the Activity (in test [8]; in the test with Pontederia vaginalis [9]; in the test with Cyperus difformis [5]) were 0%, 0% and 100%, respectively.

Regarding `CCOC(=O)CN(C(=O)CCl)C(=C(C)C)c1ccccc1`, the Activity with Pontederia vaginalis [1] is 40%; in [2] it was 40%; in test [3] it was 80%; in the test on Echinochloa oryzicola [4] it was 100%; in the test on Cyperus difformis [5], 80%.

Regarding `CC(C)=C(c1ccccc1)N(CCOC/C=C/c1ccccc1)C(=O)CCl`, the Activity worked out at 0% in the test with Pontederia vaginalis [1]; 40% in test [2]; 0% in test [3]; 20% in the test with Echinochloa oryzicola [4]; 0% in the test on Cyperus difformis [5].

For `CC(C)=C(c1ccccc1)N(CCCOC(C)C)C(=O)CCl`, the Activity (with Pontederia vaginalis [1]; in test [2]; in test [3]; with Echinochloa oryzicola [4]; in the test with Cyperus difformis [5]) was 100% in each case.

As for `COCCN(C(=O)CCl)C(=C(C)C)c1cccc(Oc2ccc(Cl)cc2)c1`, the Activity stood at 100% in the test with Pontederia vaginalis [1]; 80% in test [2]; 100% in test [3]; 100% in the test with Echinochloa oryzicola [4]; 100% with Cyperus difformis [5].

Regarding `CCOC(=O)C(C)N(C(=O)CCl)C(=C(C)C)c1ccccc1` (centres undefined), the Activity (with Pontederia vaginalis [1]; in [2]; in test [3]; in the test on Echinochloa oryzicola [4]; in the test with Cyperus difformis [5]) was 100% throughout.

For the molecule `CCCOCCN(C(=O)CCl)C(=C(C)C)c1ccccc1`, the Activity (in the test with Pontederia vaginalis [1]; in the test on Echinochloa oryzicola [6]; in test [2]; in [3]; in the test on Cyperus difformis [7]; in the test on Echinochloa oryzicola [4]) was 100% throughout. Besides, the Activity was determined as 80% in test [8], 100% in the test with Pontederia vaginalis [9] and 100% with Cyperus difformis [5].

For the molecule `COCCN(C(=O)CCl)C(=C(C)C)c1cc(C(C)C)ccc1C`, the Activity in the test on Pontederia vaginalis [1] is 100%; with Echinochloa oryzicola [6], 60%; in test [2] it was 100%; in test [3], 100%; in the test on Cyperus difformis [7], 0%; with Echinochloa oryzicola [4] it was 100%. For the same molecule, the figures for the Activity (in [8]; in the test with Pontederia vaginalis [9]; with Cyperus difformis [5]) were 0%, 0% and 100%, respectively.
